From article PMC6915728 (Nature Communications, 2019)
Like-named read-outs stand apart in the source and are kept apart here.

Legend:
[1] = tested on: E. coli BW25113 ΔmlaD; experiment: MIC, serial broth dilution, mlaD knockout strain vs wild type; assay type: cell-based, Escherichia coli; details: mlaD deletion strain relative to control (E. coli BW25113); 3 replicates each; from optical density values of serial dilution plates, AMP in µg ml-1
Protocol: What could be the mechanism behind the antagonistic action of this pathway on membrane- versus intracellular-targeting AMPs? Since MlaD is part of a protein complex, it may lead to a loss-of-function effect upon overexpression[41],[42]. To test this, we asked whether overexpression and deletion of mlaD cause similar changes in susceptibility to a representative set of membrane- and intracellular-targeting AMPs.
(§1) Minimum inhibitory concentrations (MIC) were determined with a standard serial broth dilution technique with a minor modification. Specifically, instead of a two-fold dilution series, smaller AMP concentration steps were used (typically 1.2-fold) for two reasons. […] Second, gene overexpressions caused typically only small changes in the MICs of AMPs and therefore higher resolution was required. The protocol was as follows. From a stock solution of an AMP, 12-steps serial dilution was prepared in fresh MS medium in 96-well microtiter plates. Each AMP was represented in 11 different concentrations (3 wells per AMP concentration per strain). Three wells contained only medium to check the growth in the absence of AMP. After overnight growth in MS medium supplemented with chloramphenicol, bacterial strains were diluted 20-fold into fresh MS medium and grown until the cell density reached OD600 ~1. Cells were induced by 100 µM of IPTG and incubated for 1 h at 30 °C with continuous shaking at 300 rpm. Following incubation, approximately half-million cells were inoculated into the wells of the 96-well microtiter plate with a 96‐pin replicator. We used three independent replicates for each strain and the corresponding control. Two rows in the 96-well plate contained only MS medium in order to obtain the background OD value of the medium. Plates were incubated at 30 °C with continuous shaking at 300 rpm. After 20–24 h of incubation, OD600 values were measured in a microplate reader (Biotek Synergy 2).
A mlaD knockout strain of E. coli BW25113 carrying a kanamycin resistance cassette in the position of the gene was selected from the KEIO collection. The resistance marker was removed using plasmid-borne (pFT-A) expression of FLP recombinase leading to excision of the kanamycin resistance cassette. Cassette excision was verified by a polymerase chain reaction using the primers mlaD_del_ver_Fw (5′- […]) and mlaD_del_ver_Rev (5′- […]).
Supplementary Figure 13. […] The bacterial susceptibility of the mutant to AMPs was tested by MIC determination. Growth is shown relative to growth in the absence of the corresponding AMP. The blue line represents the mlaD knockout strain and the orange line represents the control strain (wild-type E. coli BW25113). Error bars indicate the standard errors based on three biological replicates. Source data are provided in the Source Data file.

[2] = tested on: bacterial species in which the gene showed activity; details: cited from earlier work
[3] = tested on: E. coli BW25113 overexpression strains (ASKA plasmids); experiment: Minimum inhibitory concentration (MIC), serial broth dilution, single-gene overexpression strains vs empty-vector control; assay type: cell-based, Escherichia coli; details: for Relative MIC: broth dilution, MS medium, 100 µM IPTG, 30 °C, 20-24 h, OD600, 3 replicates
Protocol: as §1

[4] = tested on: bacterial membrane; details: literature mining; ref superscript numbers in the cell, listed in Supplementary Data 7 sheet References; cited from earlier work
Excerpt: Supplement 41467_2019_13618_MOESM10_ESM.xlsx, sheet "AMP details" | column: Pore formation

[5] = tested on: AMP-evolved E. coli lines; details: ref Spohn et al 2019, cited from earlier work
Excerpt: Supplement 41467_2019_13618_MOESM13_ESM.xlsx, sheet "Figure 6 and S15" | column: A comprehensive dataset of antimicrobial susceptibility of AMP-adapted lines to antimicrobial peptides (AMPs).

[6] = overexpression strain narY, MIC of overexpression strain / MIC of empty-plasmid control

GIINTLQKYYRVRGGRAVLSLPKEEQIGKSTRGRKRRKK [HBD3, Human beta-defensin-3, human host-defense peptide; cluster C2]
Average relative change in MIC [1]: 1.56
Gene that modulates bacterial susceptibility to the AMP ([2]; Staphylococcus epidermidis, ref http://onlinelibrary.wiley.com/doi/10.1046/j.1462-5822.2004.00367.x/epdf): icaA(ica operon)
Average relative change in MIC ([3]; mlaD overexpression strain relative to control (wild-type+empty vector), 3 replicates each, from optical density values of serial dilution plates, AMP in µg ml-1): 1.75
Relative MIC ([3]; overexpression strain hyfA, MIC of overexpression strain / MIC of empty-plasmid control): 0.8
Relative MIC ([3]; overexpression strain mlaD, MIC of the overexpression strain / MIC of the control strain (wild-type carrying the empty plasmid)): >1.55
Relative MIC [3, 6]: 0.8

Peptide glycine-leucine amide [PGLA]
Pore formation (whether AMP makes pores in the bacterial membrane) [4]: Yes10,11
Gene that modulates bacterial susceptibility to the AMP ([2]; Salmonella typhimurium, Salmonella typhi, ref http://www.sciencedirect.com/science/article/pii/S009286740081750X): pagP
Relative MIC ([3]; overexpression strain gadW, MIC of overexpression strain / MIC of empty-plasmid control): 0.63
Relative MIC ([3]; overexpression strain lptB, MIC of overexpression strain / MIC of empty-plasmid control): 1.66
Relative MIC ([3]; overexpression strain mlaC, MIC of overexpression strain / MIC of empty-plasmid control): 1.3
Relative MIC ([3]; overexpression strain mzrA, MIC of overexpression strain / MIC of empty-plasmid control): 1.2
Relative MIC [3, 6]: 0.8
Relative MIC ([3]; overexpression strain nikB, MIC of overexpression strain / MIC of empty-plasmid control): 1.25
Relative MIC ([3]; overexpression strain ptsN, MIC of overexpression strain / MIC of empty-plasmid control): 0.71
Relative MIC ([3]; overexpression strain uhpC, MIC of overexpression strain / MIC of empty-plasmid control): 1.25
Relative change in MIC (MIC of the AMP-adpated line / MIC of the ancestral strain) ([5]; AMP-adapted line BAC5_3): 1.4
Relative change in MIC (MIC of the AMP-adpated line / MIC of the ancestral strain) ([5]; AMP-adapted line BAC5_5): 1.1
Relative change in MIC (MIC of the AMP-adpated line / MIC of the ancestral strain) ([5]; AMP-adapted line BAC5_7): 0.9
Relative change in MIC (MIC of the AMP-adpated line / MIC of the ancestral strain) ([5]; AMP-adapted line BAC5_10): 1.3
Relative change in MIC (MIC of the AMP-adpated line / MIC of the ancestral strain) ([5]; AMP-adapted line CAP18_2): 2.5
Relative change in MIC (MIC of the AMP-adpated line / MIC of the ancestral strain) ([5]; AMP-adapted line CAP18_5): 5.2
Relative change in MIC (MIC of the AMP-adpated line / MIC of the ancestral strain) ([5]; AMP-adapted line CAP18_6): 1.6
Relative change in MIC (MIC of the AMP-adpated line / MIC of the ancestral strain) ([5]; AMP-adapted line CAP18_8): 3
Relative change in MIC (MIC of the AMP-adpated line / MIC of the ancestral strain) ([5]; AMP-adapted line CAP18_10): 4.3
Relative change in MIC (MIC of the AMP-adpated line / MIC of the ancestral strain) ([5]; AMP-adapted line HBD3_3): 2.3
Relative change in MIC (MIC of the AMP-adpated line / MIC of the ancestral strain) ([5]; AMP-adapted line HBD3_6): 3.6
Relative change in MIC (MIC of the AMP-adpated line / MIC of the ancestral strain) ([5]; AMP-adapted line HBD3_8): 3.3
Relative change in MIC (MIC of the AMP-adpated line / MIC of the ancestral strain) ([5]; AMP-adapted line HBD3_10): 1.9
Relative change in MIC (MIC of the AMP-adpated line / MIC of the ancestral strain) ([5]; AMP-adapted line LL37_1): 1.4
Relative change in MIC (MIC of the AMP-adpated line / MIC of the ancestral strain) ([5]; AMP-adapted line LL37_3): 1.9
Relative change in MIC (MIC of the AMP-adpated line / MIC of the ancestral strain) ([5]; AMP-adapted line LL37_6): 1.8
Relative change in MIC (MIC of the AMP-adpated line / MIC of the ancestral strain) ([5]; AMP-adapted line LL37_7): 5.2
Relative change in MIC (MIC of the AMP-adpated line / MIC of the ancestral strain) ([5]; AMP-adapted line LL37_10): 1.8
Relative change in MIC (MIC of the AMP-adpated line / MIC of the ancestral strain) ([5]; AMP-adapted line PEX_1): 3.5
Relative change in MIC (MIC of the AMP-adpated line / MIC of the ancestral strain) ([5]; AMP-adapted line PEX_4): 3.5
Relative change in MIC (MIC of the AMP-adpated line / MIC of the ancestral strain) ([5]; AMP-adapted line PEX_5): 1.9
Relative change in MIC (MIC of the AMP-adpated line / MIC of the ancestral strain) ([5]; AMP-adapted line PEX_6): 2.1
Relative change in MIC (MIC of the AMP-adpated line / MIC of the ancestral strain) ([5]; AMP-adapted line PEX_7): 2.9
Relative change in MIC (MIC of the AMP-adpated line / MIC of the ancestral strain) ([5]; AMP-adapted line PR39_1): 1.6
Relative change in MIC (MIC of the AMP-adpated line / MIC of the ancestral strain) ([5]; AMP-adapted line PR39_2): 1.5
Relative change in MIC (MIC of the AMP-adpated line / MIC of the ancestral strain) ([5]; AMP-adapted line PR39_5): 0.8
Relative change in MIC (MIC of the AMP-adpated line / MIC of the ancestral strain) ([5]; AMP-adapted line PR39_7): 1.5
Relative change in MIC (MIC of the AMP-adpated line / MIC of the ancestral strain) ([5]; AMP-adapted line PR39_10): 0.4
Relative change in MIC (MIC of the AMP-adpated line / MIC of the ancestral strain) ([5]; AMP-adapted line PROA_2): 1.6
Relative change in MIC (MIC of the AMP-adpated line / MIC of the ancestral strain) ([5]; AMP-adapted line PROA_3): 1.1
Relative change in MIC (MIC of the AMP-adpated line / MIC of the ancestral strain) ([5]; AMP-adapted line PROA_7): 0.6
Relative change in MIC (MIC of the AMP-adpated line / MIC of the ancestral strain) ([5]; AMP-adapted line PROA_8): 1.2
Relative change in MIC (MIC of the AMP-adpated line / MIC of the ancestral strain) ([5]; AMP-adapted line PROA_9): 0.9
Relative change in MIC (MIC of the AMP-adpated line / MIC of the ancestral strain) ([5]; AMP-adapted line PXB_2): 1.8
Relative change in MIC (MIC of the AMP-adpated line / MIC of the ancestral strain) ([5]; AMP-adapted line PXB_5): 1.5
Relative change in MIC (MIC of the AMP-adpated line / MIC of the ancestral strain) ([5]; AMP-adapted line PXB_6): 8
Relative change in MIC (MIC of the AMP-adpated line / MIC of the ancestral strain) ([5]; AMP-adapted line PXB_8): 4.5
Relative change in MIC (MIC of the AMP-adpated line / MIC of the ancestral strain) ([5]; AMP-adapted line PXB_10): 5.5
